Target: T1, α6*nAChR (Homo sapiens, UniProt Q15825)
T1 construct: endogenous in cells; host or cells: human inducible Tregs (from naïve CD4+ T cells of PBMCs) co-cultured with autologous CD8+ T cells
Type: cell-based

T1 sequence (Q15825 26-494): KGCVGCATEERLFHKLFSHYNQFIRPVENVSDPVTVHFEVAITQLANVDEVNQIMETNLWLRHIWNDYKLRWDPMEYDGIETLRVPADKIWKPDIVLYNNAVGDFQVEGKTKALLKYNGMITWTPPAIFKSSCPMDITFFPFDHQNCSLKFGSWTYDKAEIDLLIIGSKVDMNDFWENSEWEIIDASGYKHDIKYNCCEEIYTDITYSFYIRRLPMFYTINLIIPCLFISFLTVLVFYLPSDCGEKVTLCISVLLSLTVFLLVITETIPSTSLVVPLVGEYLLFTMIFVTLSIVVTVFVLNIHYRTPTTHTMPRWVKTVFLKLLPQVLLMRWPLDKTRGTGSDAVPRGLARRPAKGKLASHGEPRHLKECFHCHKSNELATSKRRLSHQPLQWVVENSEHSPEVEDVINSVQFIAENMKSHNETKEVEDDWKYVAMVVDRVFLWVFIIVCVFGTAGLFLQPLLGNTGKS

Row | Molecule | IFNγ+CD8+ T-cells in co-culture | IFNγ+CD8+ T cells in co-culture
1 | CN1CCCC1c1cccnc1 (centres unmarked) [nicotine] | trend of decreasing IFNγ+CD8+ T-cells | –
2 | alpha-conotoxin PIA [[…]-conotoxin PIA] | – | trend of increasing IFNγ+CD8+ T cells

From patent US20220033490A1 (priority 2018, published 2022)
